Laboratory results taken from patent US5175100A, “Stereospecific resolution by hydrolysis of esters of 2-arylpropionic acids by liver enzymes” (Rhone-Poulenc, Inc., priority 1991, dated 1992).

Key:
Format in all cases: biochemical
[1] = system: Liver acetone powder from Turtle; experiment: Hydrolysis of ketoprofen methyl ester by turtle liver acetone powder; settings: Turtle powder 10 mg, 50 mg ester, pH 7.0, room temperature, 24 hours
Description: (§1) A solution of 50 mg of ketoprofen methyl ester in 0.2 ml of ethanol was added to 10 mg of each of liver acetone powder from various animal sources (described in Table 1) in 5 ml of 0.1M potassium phosphate buffer (pH 7.0) After shaking at room temperature for 24 hours, the reaction mixtures were acidified to pH 2.0 with 6(N) HCl and extracted with 10 ml of ethyl acetate. A portion of the ethyl acetate extract was analyzed by HPLC on a Partisil 5 ODS-3 RAC column (9.4 mm×100 mm, Whatman) using a mixture of methanol and 10 mM ammonium dihydrogen phospate (9:1) and monitored by UV at 254 nm to determine the percentages of acid produced in the reaction.

[2] = system: Liver acetone powder from Lemon Shark; experiment: Hydrolysis of ketoprofen methyl ester by lemon shark liver acetone powder; settings: Lemon Shark powder 10 mg, 50 mg ester, pH 7.0, room temperature, 24 hours
Description: as §1

[3] = system: Liver acetone powder from Rat; experiment: Hydrolysis of ketoprofen methyl ester by rat liver acetone powder
Description: as §1
(§2) To determine the percentage of R- and S-acid, a portion of the ethyl acetate extract was converted to the amide derivative of the acid produced with R(+)-1-phenylethylamine as follows. The ethyl acetate extract (5 ml) was dried over sodium sulfate, filtered and cooled to 0° C. To the cold solution was added 0.2 ml of N-methylmorpholine followed by 0.2 ml of isobutyl chloroformate. After gentle shaking at 0° C. for 10 minutes, 0.2 ml of R(+)-1-phenylethylamine was added and the shaking was continued at 0° C. for 5 minutes and at room temperature for another 5 minutes. The reaction mixture was washed successively with water (5 ml), 1(N) HCl (5 ml), and water (5 ml) to provide the amide derivative in ethyl acetate solution. The ethyl acetate solution of the amide derivative was then analyzed by HPLC on the same column and same solvent mixture but with a different composition, i.e., a ratio of 6:4, and monitored by UV to determine the percentages of R- acid and S-acids produced by hydrolysis. The enantiomeric excess (EE) is defined as the difference in percent between the percent R- acid and the percent S-acid, the higher enantiomer being reported in the parenthesis in Table I.

[4] = system: Liver acetone powder from Rabbit; experiment: Hydrolysis of ketoprofen methyl ester by rabbit liver acetone powder
Description: as §1, §2

[5] = system: Liver acetone powder from Chicken; experiment: Hydrolysis of ketoprofen methyl ester by chicken liver acetone powder
Description: as §1, §2

[6] = Rat powder 10 mg, 50 mg ester, pH 7.0, room temperature, 24 hours
[7] = Rabbit powder 10 mg, 50 mg ester, pH 7.0, room temperature, 24 hours
[8] = Chicken powder 10 mg, 50 mg ester, pH 7.0, room temperature, 24 hours

## COC(=O)C(C)c1cccc(C(=O)c2ccccc2)c1 (centres unmarked) [Methyl Ester of Ketoprofen, ketoprofen methyl ester]
[1]
  Percentage of acid: 0.6%
[2]
  Percentage of acid: 0.6%
[3]; [6]
  Percentage of Acid R-acid: 52.7%
  Percentage of Acid S-acid: 47.3%
  Percentage of acid: 7.5%
[3]; Rat powder, Table 1, higher enantiomer (R)
  Percentage EE of acid (R or S): 5.4%
[4]; [7]
  Percentage of Acid R-acid: 46.1%
  Percentage of Acid S-acid: 53.9%
  Percentage of acid: 54.9%
[4]; Rabbit powder, Table 1, higher enantiomer (S)
  Percentage EE of acid (R or S): 7.8%
[5]; [8]
  Percentage of Acid R-acid: 52.7%
  Percentage of Acid S-acid: 47.3%
  Percentage of acid: 8.1%
[5]; Chicken powder, Table 1, higher enantiomer (R)
  Percentage EE of acid (R or S): 5.4%
